# Measured values as given in ChEMBL document CHEMBL1201862, “PubChem BioAssay data set” (2004).
#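 Step 1: Grow cells in 96-well plates. Step 2: Expose to compound for 48 hours at 5 concentrations. Step 3: Interpolate endpoints linearly; if unreached, use highest concentration. GI50 marks 50% less growth.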 The source made the active and inactive calls. No stated cut-off is given here; in the data, active = GI50 up to about 1.1 µM and inactive = higher.
# Columns and labels:
# Experiment in all cases: growth of human tumour cells (NCI), 48 h
# NCI-H522 = test system: NCI-H522
# CCRF-CEM = test system: CCRF-CEM
# UO-31 = test system: UO-31
# HL-60 = test system: HL-60
# 786-0 = test system: 786-0
# HCT-116 = test system: HCT-116
# NCI-H460 = test system: NCI-H460
# SNB-78 = test system: SNB-78
# EKVX = test system: EKVX
# UACC-62 = test system: UACC-62
# OVCAR-5 = test system: OVCAR-5
# M19-MEL = test system: M19-MEL
# SW-620 = test system: SW-620
# XF498 = test system: XF498
# COLO 205 = test system: COLO 205
# SF-295 = test system: SF-295
# SK-MEL-28 = test system: SK-MEL-28
# OVCAR-4 = test system: OVCAR-4
# RXF 393 = test system: RXF 393
# SK-MEL-2 = test system: SK-MEL-2
# SR = test system: SR
# IGROV-1 = test system: IGROV-1
# MOLT-4 = test system: MOLT-4
# NCI-H23 = test system: NCI-H23
# KM-20L2 = test system: KM-20L2
# SF-268 = test system: SF-268
# K562 = test system: K562
# HCC 2998 = test system: HCC 2998
# HOP-92 = test system: HOP-92
# A549 = test system: A549
# UACC-257 = test system: UACC-257
# HCT-15 = test system: HCT-15
# SNB-19 = test system: SNB-19
# DMS-114 = test system: DMS-114
# DLD-1 = test system: DLD-1
# TK-10 = test system: TK-10
# SF-539 = test system: SF-539
# SNB-75 = test system: SNB-75
# SN12C = test system: SN12C
# U-251 = test system: U-251
# LOX IMVI = test system: LOX IMVI
# DMS-273 = test system: DMS-273
# LXFL 529 = test system: LXFL 529
# KM12 = test system: KM12
# RPMI-8226 = test system: RPMI-8226
# Malme-3M = test system: Malme-3M
# SK-MEL-5 = test system: SK-MEL-5
# HT-29 = test system: HT-29
# NCI-H226 = test system: NCI-H226
# CAKI-1 = test system: CAKI-1
# SK-OV-3 = test system: SK-OV-3
# MCF7 = test system: MCF7
# A498 = test system: A498
# M14 = test system: M14
# HOP-62 = test system: HOP-62
# OVCAR-3 = test system: OVCAR-3
# ACHN = test system: ACHN
# HOP-18 = test system: HOP-18
smiles,measurement,setting,value
O=C(O)CS [THIOGLYCOLIC ACID],GI50,NCI-H522,> 100 µM (inactive)
same,GI50,CCRF-CEM,> 100 µM (inactive)
same,GI50,UO-31,> 100 µM (inactive)
same,GI50,HL-60,> 100 µM (inactive)
same,GI50,786-0,> 100 µM (inactive)
same,GI50,HCT-116,> 100 µM (inactive)
same,GI50,NCI-H460,> 100 µM (inactive)
same,GI50,SNB-78,> 100 µM (inactive)
same,GI50,EKVX,> 100 µM (inactive)
same,GI50,UACC-62,> 100 µM (inactive)
same,GI50,OVCAR-5,> 100 µM (inactive)
same,GI50,M19-MEL,> 100 µM (inactive)
same,GI50,SW-620,> 100 µM (inactive)
same,GI50,XF498,> 100 µM (inactive)
same,GI50,COLO 205,> 100 µM (inactive)
same,GI50,SF-295,> 100 µM (inactive)
same,GI50,SK-MEL-28,> 100 µM (inactive)
same,GI50,OVCAR-4,> 100 µM (inactive)
same,GI50,RXF 393,> 100 µM (inactive)
same,GI50,SK-MEL-2,> 100 µM (inactive)
same,GI50,SR,> 100 µM (inactive)
same,GI50,IGROV-1,> 100 µM (inactive)
same,GI50,MOLT-4,> 100 µM (inactive)
same,GI50,NCI-H23,> 100 µM (inactive)
same,GI50,KM-20L2,> 100 µM (inactive)
same,GI50,SF-268,> 100 µM (inactive)
same,GI50,K562,> 100 µM (inactive)
same,GI50,HCC 2998,> 100 µM (inactive)
same,GI50,HOP-92,> 100 µM (inactive)
same,GI50,A549,> 100 µM (inactive)
same,GI50,UACC-257,> 100 µM (inactive)
same,GI50,HCT-15,> 100 µM
same,GI50,SNB-19,> 100 µM (inactive)
same,GI50,DMS-114,> 100 µM (inactive)
same,GI50,DLD-1,> 100 µM (inactive)
same,GI50,TK-10,> 100 µM (inactive)
same,GI50,SF-539,> 100 µM (inactive)
same,GI50,SNB-75,> 100 µM (inactive)
same,GI50,SN12C,> 100 µM (inactive)
same,GI50,U-251,> 100 µM (inactive)
same,GI50,LOX IMVI,> 100 µM (inactive)
same,GI50,DMS-273,> 100 µM (inactive)
same,GI50,LXFL 529,> 100 µM (inactive)
same,GI50,KM12,> 100 µM (inactive)
same,GI50,RPMI-8226,> 100 µM (inactive)
same,GI50,Malme-3M,> 100 µM (inactive)
same,GI50,SK-MEL-5,> 100 µM (inactive)
same,GI50,HT-29,> 100 µM (inactive)
same,GI50,NCI-H226,> 100 µM (inactive)
same,GI50,CAKI-1,> 100 µM (inactive)
same,GI50,SK-OV-3,> 100 µM (inactive)
CC1[C@@H]2CC=C3[C@H]4CCC5Cc6nc7c(nc6C[C@@]5(C)C4(O)CC(=O)[C@]32CO[C@]12OC(C)(C)CC2O)CC1CC[C@@H]2C3=C[C@H]4O[C@@]5(O[C@@](C)(CO)C[C@@H]5O)C(C)[C@@]4(O)[C@]3(C)[C@@H](O)CC2[C@]1(C)C7 (stereo not given in full),GI50,HL-60,< 0.0001 µM (active)
same,GI50,XF498,< 0.0001 µM (active)
same,GI50,SF-295,< 0.0001 µM (active)
same,GI50,RXF 393,< 0.0001 µM (active)
same,GI50,HCC 2998,0.0748 µM (active)
same,GI50,MCF7,0.00194 µM (active)
same,GI50,DMS-114,0.00011 µM (active)
same,GI50,TK-10,0.0204 µM (active)
same,GI50,SF-539,< 0.0001 µM (active)
same,GI50,SNB-75,< 0.0001 µM (active)
same,GI50,DMS-273,< 0.0001 µM (active)
same,GI50,RPMI-8226,< 0.0001 µM (active)
same,GI50,A498,0.000342 µM (active)
Cc1ccc(-c2c(N)nc(NC#N)nc2CCC(=O)Nc2ccccc2[N+](=O)[O-])cc1,GI50,M14,> 100 µM (inactive)
same,GI50,NCI-H522,85.1 µM (inactive)
same,GI50,CCRF-CEM,> 100 µM (inactive)
same,GI50,UO-31,> 100 µM (inactive)
same,GI50,HL-60,> 100 µM (inactive)
same,GI50,786-0,> 100 µM (inactive)
same,GI50,HCT-116,> 100 µM (inactive)
same,GI50,NCI-H460,> 100 µM (inactive)
same,GI50,HOP-62,> 100 µM (inactive)
same,GI50,SNB-78,> 100 µM (inactive)
same,GI50,OVCAR-3,> 100 µM (inactive)
same,GI50,EKVX,> 100 µM (inactive)
same,GI50,UACC-62,> 100 µM (inactive)
same,GI50,OVCAR-5,> 100 µM (inactive)
same,GI50,M19-MEL,> 100 µM (inactive)
same,GI50,SW-620,> 100 µM (inactive)
same,GI50,COLO 205,> 100 µM (inactive)
same,GI50,SF-295,> 100 µM (inactive)
same,GI50,SK-MEL-28,> 100 µM (inactive)
same,GI50,OVCAR-4,> 100 µM (inactive)
same,GI50,RXF 393,> 100 µM (inactive)
same,GI50,SK-MEL-2,> 100 µM (inactive)
same,GI50,SR,> 100 µM (inactive)
same,GI50,IGROV-1,> 100 µM (inactive)
same,GI50,MOLT-4,> 100 µM (inactive)
same,GI50,NCI-H23,> 100 µM (inactive)
same,GI50,KM-20L2,> 100 µM (inactive)
same,GI50,SF-268,> 100 µM (inactive)
same,GI50,K562,> 100 µM (inactive)
same,GI50,HCC 2998,> 100 µM (inactive)
same,GI50,HOP-92,> 100 µM (inactive)
same,GI50,A549,> 100 µM (inactive)
same,GI50,UACC-257,> 100 µM (inactive)
same,GI50,HCT-15,> 100 µM
same,GI50,SNB-19,> 100 µM (inactive)
same,GI50,DMS-114,> 100 µM (inactive)
same,GI50,DLD-1,> 100 µM (inactive)
same,GI50,TK-10,> 100 µM (inactive)
same,GI50,SF-539,> 100 µM (inactive)
same,GI50,SNB-75,> 100 µM (inactive)
same,GI50,SN12C,> 100 µM (inactive)
same,GI50,ACHN,> 100 µM (inactive)
same,GI50,U-251,> 100 µM (inactive)
same,GI50,LOX IMVI,> 100 µM (inactive)
same,GI50,DMS-273,> 100 µM (inactive)
same,GI50,LXFL 529,> 100 µM (inactive)
same,GI50,KM12,> 100 µM (inactive)
same,GI50,RPMI-8226,> 100 µM (inactive)
same,GI50,Malme-3M,> 100 µM (inactive)
same,GI50,SK-MEL-5,> 100 µM (inactive)
same,GI50,HT-29,> 100 µM (inactive)
same,GI50,A498,> 100 µM (inactive)
same,GI50,NCI-H226,> 100 µM (inactive)
same,GI50,HOP-18,> 100 µM (inactive)
same,GI50,CAKI-1,> 100 µM (inactive)
same,GI50,SK-OV-3,> 100 µM (inactive)
